According to patent US11919906B2, “Crystal form of ACP-196 and method of treatment thereof” (Hangzhou SoliPharma Co., Ltd., priority 2016, dated 2024):

Key:
[1] = Isothermal sorption (dynamic vapor sorption), hygroscopicity; type: physicochemical; details: between 30 to 80% RH
Protocol: Dynamic vapor sorption data and isothermal sorption data were collected on TA Instruments Q5000 TGA. Method: A sample of 1 to 10 mg was placed in a platinum pan; the weight change of the sample during the change in relative humidity from 0% to 80% to 0% was measured.

[2] = Thermogravimetric analysis (TGA), weight loss / residual solvents; type: physicochemical; details: before 150° C.
Protocol: Thermogravimetric analysis data were collected on TA instruments Q500 TGA. Method: A sample of 5 to 15 mg was placed in a platinum pan, using High Resolution™, the sample was heated from room temperature to 350° C. at a heating rate of 10° C./min under the protection of dry nitrogen purge at 40 mL/min.

Structure (SMILES) | weight change (isothermal sorption plot) [1] [%] | weight loss (TGA) [2] [%]
CC#CC(=O)N1CCC[C@H]1c1nc(-c2ccc(C(=O)Nc3ccccn3)cc2)c2c(N)nccn12 [ACP-196 Form 1] | 0.8 | –
CC#CC(=O)N1CCC[C@H]1c1nc(-c2ccc(C(=O)Nc3ccccn3)cc2)c2c(N)nccn12 [amorphous ACP-196] | 5.5 | 11.1
